Like-named read-outs stand apart in the source and are kept apart here.
Key:
[1] = test system: human breast cancer cell strain MCF-7; test: MTT proliferation inhibition, MCF-7; format: cell-based; settings: Homo sapiens, MCF7, MCF-7 cells, 48 h, read-out: Inhibitory activity (IC50) against proliferation, MCF-7
Procedure: (§1) The anti-tumor activity of the compounds of the present invention was determined by the method of methyl thiazolyl tetrazolium (MTT), Bardoxolone Methyl (CDDO-Me) being selected as a positive control medicament.
(§2) Instruments: ultra-clean bench (SW-CJ-1FD, AIRTECH, Suzhou Antai Airtech Co. Ltd.), constant-temperature CO2 incubator (3111, Thermo, USA), inverted biomicroscope (IX71, OLYMPUS, Japan), ELISA microplate reader (Model 680, BIO-RAD, USA), platform shaker (Kylin-bell lab Instruments), autoclave (YXO.SG4I.280, Shanghai Huaxian), and centrifuge (SIGMA).
(§3) Reagents: DMEM (GIBCO), fetal bovine serum (GIBCO), trypsin (SIGMA), and DMSO (SIGMA).
(§4) Cell strains: human non-small cell lung cancer cell strain A549, human liver cancer cell strain HepG2, human breast cancer cell strain MCF-7, human renal tubular epithelial cells HK-2, rat embryonic cardiomyocytes H9C2 (all provided by Jiangsu KeyGEN BioTECH Co., Ltd.).
(§5) Methods: the cryopreserved cell strains were resuscitated and cultured in a CO2 incubator at a constant temperature of 37° C. with liquid being changed once daily. Plating was carried out when the cell strains were in a good state in the exponential phase. 1 mL of 0.25% trypsin solution was added for digestion for 1-2 min. The cell status was observed under the microscope, and when the adherent cells became round and shrunk, the digestion solution was aspirated and 1-2 mL of a DMEM medium containing 10% fetal bovine serum was added to obtain a cell suspension, on which a cell count was performed. The amount of required cell suspension was calculated on the basis of 5×10^4 cells per well and the total number of wells. The cell suspension was inoculated on a 96-well plate at 100 μL/well, the surroundings being blocked with PBS, followed by incubation in a CO2 incubator at a constant temperature of 37° C. for 24 h.
(§6) The test medicament, positive control medicament CDDO-Me, and blank control group DMSO were prepared in DMEM media to a final concentration of 5 μM/well, each medicament being placed in 3 replicate wells, followed by incubation for 48 h. The MTT reagent was added to the 96-well plate at 10 μL/well to further incubate for 4 h. The medium in the plate was aspirated and 100 μL of DMSO was added to each well, followed by shaking on the platform shaker for 10 min such that the crystals were dissolved. The absorbance of each well was examined by the ELISA microplate reader at a wavelength of 570 nm, and the cell inhibition rate was calculated according to the formula hereinafter. The mean value of three preliminary screening results was taken as the final inhibition rate thereof.
(§7) Cell inhibition rate (%)=[(OD value of blank control−OD value of dosing cohort)/OD value of blank control group]×100%

[2] = test system: human liver cancer cell strain HepG2; test: MTT proliferation inhibition, HepG2; format: cell-based; settings: Homo sapiens, HepG2 cells, 48 h, read-out: Inhibitory activity (IC50) against proliferation, HepG2
Procedure: as §1, §2, §3, §4, §5
The MTT reagent was added to the 96-well plate at 10 μL/well to further incubate for 4 h. The medium in the plate was aspirated and 100 μL of DMSO was added to each well, followed by shaking on the platform shaker for 10 min such that the crystals were dissolved. […] The mean value of three preliminary screening results was taken as the final inhibition rate thereof.
as §7

[3] = test system: human renal tubular epithelial cells HK-2; test: MTT proliferation inhibition / toxicity, HK-2; format: cell-based; settings: for IC50: Homo sapiens, HK-2 cells, MTT, 48 h, read-out: Inhibitory activity (IC50) against proliferation, HK-2; for toxicity to human renal tubular epithelial cells HK-2: statement in words
Procedure: as §1, §2, §3, §4, §5, §6, §7

[4] = test system: human non-small cell lung cancer cell strain A549; test: MTT proliferation inhibition, A549; format: cell-based; settings: Homo sapiens, A549 cells, 48 h, read-out: Inhibitory activity (IC50) against proliferation, A549
Procedure: as §1, §2, §3, §4, §5, §6, §7

[5] = test system: rat embryonic cardiomyocytes H9C2; test: MTT proliferation inhibition / toxicity, H9C2; format: cell-based; settings: Rattus norvegicus, H9C2 cardiomyocytes, MTT, 48 h, read-out: Inhibitory activity (IC50) against proliferation, H9C2
Procedure: as §1, §2, §3, §4, §5, §6, §7

[6] = test system: M-MDSC, PMN-MDSC; test: Spleen M-MDSC / PMN-MDSC by flow cytometry in S180 tumor-bearing mice; format: in vivo, ICR mice; settings: 7 days; for M-MDSC: CD11b+LY6Chi+; for PMN-MDSC: CD11b+LY6G+
Procedure: (§8) 1) Experimental animals: 72 female ICR mice between 6 and 8 weeks of age; experimental cells: S180 ascitic tumor cells.
(§9) 8 animals were used as the normal group, and the rest of the mice were subjected to modeling by the following method.
(§10) 2) Proliferation and passaging of S180 ascitic tumor cells: S180 ascitic tumor cells cryopreserved at −80° C. were thawed in a water bath at 37° C., placed in a 12 mL centrifuge tube, to which an appropriate amount of saline was added, and centrifuged at 1200 rpm for 5 min. The supernatant was discarded, then the cells were resuspended in 300 μL of saline and intraperitoneally injected into an ICR mouse. As the mouse's abdomen swelled up, intraperitoneal injection of the cells in a second ICR mouse was performed, and the cells were ready for inoculation when the abdomen thereof swelled up.
(§11) 3) Inoculation of S180 tumor cells in the armpit of mice: S180 cells cultured to 2 passages were centrifuged and saline was added to obtain a concentration of 1×10^7 cells/mL. A volume of 100 μL of the cells were injected subcutaneously into armpit of mice. A mouse tumor-bearing model was developed.
(§12) The model mice were divided into a tumor-bearing model group, a compound I-7 5 mg/kg group, a compound I-7 15 mg/kg group, a compound I-12 5 mg/kg group, a compound I-12 15 mg/kg group, a compound I-16 5 mg/kg group, a compound I-16 15 mg/kg group and a CDDO-Me 15 mg/kg group.
(§13) There were 8 mice in each group.
(§14) 4) Dosing: the medicaments were administered intragastrically when the tumor grew out.
(§15) An equal volume of 0.5% croscarmellose sodium was administered to the normal group and the model group.
(§16) The dosing was executed for 7 consecutive days. The mice were dissected the next day following the last dosing.
(§17) Testing items: the body weight, spleen weight and tumor weight were measured. The spleens were ground on ice, followed by red blood cell lysis and incubation with FITC-CD11b, LY6C, and LY6G antibodies for 15 min, and then tested for CD11b+LY6Chi+ and CD11b+LY6G+ with flow cytometry.

[7] = test system: S180 ascitic tumor cells; test: Inhibitory effect on tumors in S180 tumor-bearing mice; format: in vivo, ICR mice; settings: for Tumor Mass / Tumor inhibition rate: 7 consecutive days; for Splenic index: 7 days
Procedure: as §8, §9, §10, §11, §12, §13, §14
Compound I-7 of 5 mg/kg was administered in the compound I-7 5 mg/kg group;
compound I-7 of 15 mg/kg was administered in the compound I-7 15 mg/kg group;
compound I-12 of 5 mg/kg was administered in the compound I-12 5 mg/kg group;
compound I-12 of 15 mg/kg was administered in the compound I-12 15 mg/kg group;
compound I-16 of 5 mg/kg was administered in the compound I-16 5 mg/kg group;
compound I-16 of 15 mg/kg was administered in the compound I-16 15 mg/kg group; and
CDDO-Me of 15 mg/kg was administered in the CDDO-Me 15 mg/kg group.
as §15, §16, §17

Row | IC50 [1] [nM] | IC50 [2] [nM] | IC50 [4] [nM] | SMILES | IC50 [3] [nM] | toxicity to human renal tubular epithelial cells HK-2 [3] | IC50 ([5]; H9c2, 48 h) [nM] | IC50 [5] [nM] | M-MDSC ([6]; 5 mg/kg intragastric) [%] | PMN-MDSC ([6]; 5 mg/kg intragastric) [%] | M-MDSC ([6]; 15 mg/kg intragastric) [%] | PMN-MDSC ([6]; 15 mg/kg intragastric) [%] | Tumor Mass ([7]; 5 mg/kg intragastric) | Tumor inhibition rate ([7]; 5 mg/kg intragastric) [%] | Splenic index ([7]; 5 mg/kg intragastric) | Tumor Mass ([7]; 15 mg/kg intragastric) [g] | Tumor inhibition rate ([7]; 15 mg/kg intragastric) [%] | Splenic index ([7]; 15 mg/kg intragastric)
1 | 432 ± 188 | 313 ± 35 | 337 ± 15 | Cc1ccc(/C(C#N)=C/C(=O)N[C@]23CCC(C)(C)C[C@H]2[C@H]2C(=O)C=C4[C@@]5(C)C=C(C#N)C(=O)C(C)(C)[C@@H]5CC[C@@]4(C)[C@]2(C)CC3)cc1 [Compound I-14] | 939 ± 62 | lower toxicity | – | 14 ± 1 | – | – | – | – | – | – | – | – | – | –
2 | 551 ± 140 | 524 ± 32 | 658 ± 58 | COc1ccc(/C(C#N)=C/C(=O)N[C@]23CCC(C)(C)C[C@H]2[C@H]2C(=O)C=C4[C@@]5(C)C=C(C#N)C(=O)C(C)(C)[C@@H]5CC[C@@]4(C)[C@]2(C)CC3)cc1 [Compound I-15] | 350 ± 37 | – | – | 146 ± 12 | – | – | – | – | – | – | – | – | – | –
3 | 958 ± 209 | 934 ± 11 | 888 ± 21 | CC1(C)CC[C@]2(NC(=O)/C=C(\C#N)c3ccc(C(F)(F)F)cc3)CC[C@]3(C)[C@H](C(=O)C=C4[C@@]5(C)C=C(C#N)C(=O)C(C)(C)[C@@H]5CC[C@]43C)[C@@H]2C1 [Compound I-16] | 618 ± 72 | lower toxicity | – | 108 ± 7 | 0.71 ± 0.08 | 8.72 ± 2.09 | 0.40 ± 0.07 | 6.79 ± 1.55 | 1.49 ± 0.17 ^ g | 43.69 | 47.86 ± 5.73^###* 10*mg/g | 0.96 ± 0.14 | 63.60 | 46.45 ± 5.20^###* 10*mg/g

Row | SMILES | IC50 [1] [nM] | IC50 [2] [nM] | IC50 [4] [nM] | IC50 [3] [nM] | toxicity to human renal tubular epithelial cells HK-2 [3] | IC50 ([5]; H9c2, 48 h) [nM] | IC50 [5] [nM] | M-MDSC ([6]; 5 mg/kg intragastric) [%] | PMN-MDSC ([6]; 5 mg/kg intragastric) [%] | M-MDSC ([6]; 15 mg/kg intragastric) [%] | PMN-MDSC ([6]; 15 mg/kg intragastric) [%] | Tumor Mass ([7]; 5 mg/kg intragastric) | Tumor inhibition rate ([7]; 5 mg/kg intragastric) [%] | Splenic index ([7]; 5 mg/kg intragastric) | Tumor Mass ([7]; 15 mg/kg intragastric) [g] | Tumor inhibition rate ([7]; 15 mg/kg intragastric) [%] | Splenic index ([7]; 15 mg/kg intragastric)
4 | CC1(C)CC[C@]2(NC(=O)/C=C(\C#N)c3ccccc3)CC[C@]3(C)[C@H](C(=O)C=C4[C@@]5(C)C=C(C#N)C(=O)C(C)(C)[C@@H]5CC[C@]43C)[C@@H]2C1 [Compound I-13] | 375 ± 130 | 328 ± 13 | 414 ± 17 | 473 ± 630 | lower toxicity | 7 ± 9 | – | – | – | – | – | – | – | – | – | – | –
